Assays:
[1] = tested on: ENR+CD organoids (ISC to Paneth cell differentiation); experiment: Primary screen: basal (non-stimulated) lysozyme secretion LYZ.NS, 2.5-D 384-well ENR+CD organoid differentiation; type: cell-based, mouse; details: primary screen; for Z.LYZ.NS: standard z score
Text: (§1) High-throughput screening.

[2] = tested on: ENR+CD organoids (ISC to Paneth cell differentiation); experiment: Primary screen: CCh-stimulated lysozyme secretion LYZ.S, 2.5-D 384-well ENR+CD organoid differentiation; type: cell-based, mouse; details: primary screen
Text: as §1

ENR+CD organoids = experiment: Primary screen: ATP (CellTiter-Glo 3D, CTG) cell number/viability, 2.5-D 384-well ENR+CD organoids; details: primary screen; for Z.CTG: standard z score;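 for all read-outs here: compounds given at plating and again on day 3 over a 6-day differentiation from ENR+CV stem-cell-enriched precursors, ATP measured on day 6, plate median as control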
[3] = dose 0.08 uM, FC vs plate median
[4] = dose 0.40 uM, FC vs plate median
[5] = dose 2.00 uM, FC vs plate median
[6] = dose 10.00 uM, FC vs plate median
[7] = 1st dose row of the treatment (0.08 uM by row order; dose not reprinted)
[8] = 2nd dose row of the treatment (0.40 uM by row order; dose not reprinted)
[9] = 3rd dose row of the treatment (2.00 uM by row order; dose not reprinted)
[10] = 4th dose row of the treatment (10.00 uM by row order; dose not reprinted)

SMILES	Dose.FC.LYZ.NS ([1]; dose 0.08 uM) [log2 fold change]	Z.LYZ.NS (standard z score) ([1]; dose 0.08 uM)	Dose.FC.LYZ.NS ([1]; dose 0.40 uM) [log2 fold change]	Z.LYZ.NS (standard z score) ([1]; dose 0.40 uM)	Dose.FC.LYZ.NS ([1]; dose 2.00 uM) [log2 fold change]	Z.LYZ.NS (standard z score) ([1]; dose 2.00 uM)	Dose.FC.LYZ.NS ([1]; dose 10.00 uM) [log2 fold change]	Z.LYZ.NS (standard z score) ([1]; dose 10.00 uM)	Dose.FC.LYZ.S ([2]; dose 0.08 uM) [log2 fold change]	Dose.FC.LYZ.S ([2]; dose 0.40 uM) [log2 fold change]	Dose.FC.LYZ.S ([2]; dose 2.00 uM) [log2 fold change]	Dose.FC.LYZ.S ([2]; dose 10.00 uM) [log2 fold change]	Dose.FC.CTG (ENR+CD organoids; dose 0.08 uM) [log2 fold change]	Z.CTG (standard z score) (ENR+CD organoids; dose 0.08 uM)	Dose.FC.CTG (ENR+CD organoids; dose 0.40 uM) [log2 fold change]	Z.CTG (standard z score) (ENR+CD organoids; dose 0.40 uM)	Dose.FC.CTG (ENR+CD organoids; dose 2.00 uM) [log2 fold change]	Z.CTG (standard z score) (ENR+CD organoids; dose 2.00 uM)	Dose.FC.CTG (ENR+CD organoids; dose 10.00 uM) [log2 fold change]	Z.CTG (standard z score) (ENR+CD organoids; dose 10.00 uM)	other results
O=C(NCc1ccccc1)c1csc(Nc2ccncn2)n1 [Thiazovivin]	0.090	0.780	0.070	0.611	0.024	0.205	−0.069	−0.605	0.142	0.060	0.064	0.037	0.141	0.337	0.113	0.271	0.312	0.746	0.189	0.451	
Cc1ccc(S(=O)(=O)c2ccc([N+](=O)[O-])o2)cc1 [NSC697923]																					Z.LYZ.NS ([1]; dose 0.08 uM): 0.789; Z.LYZ.NS ([1]; dose 0.40 uM): 0.441; Z.LYZ.NS ([1]; dose 2.00 uM): −0.906; Z.LYZ.NS ([1]; dose 10.00 uM): −1.338; Dose.FC.LYZ.NS [1, 3]: 0.091 log2 fold change; Dose.FC.LYZ.NS [1, 4]: 0.051 log2 fold change; Dose.FC.LYZ.NS [1, 5]: −0.104 log2 fold change; Dose.FC.LYZ.NS [1, 6]: −0.154 log2 fold change; Dose.FC.LYZ.S [2, 3]: 0.036 log2 fold change; Dose.FC.LYZ.S [2, 4]: 0.108 log2 fold change; Dose.FC.LYZ.S [2, 5]: −0.154 log2 fold change; Dose.FC.LYZ.S [2, 6]: −0.270 log2 fold change; Z.CTG (ENR+CD organoids; dose 0.08 uM): −0.123; Z.CTG (ENR+CD organoids; dose 0.40 uM): −0.033; Z.CTG (ENR+CD organoids; dose 2.00 uM): −0.241; Z.CTG (ENR+CD organoids; dose 10.00 uM): −1.867; Dose.FC.CTG (ENR+CD organoids; [3]): −0.052 log2 fold change; Dose.FC.CTG (ENR+CD organoids; [4]): −0.014 log2 fold change; Dose.FC.CTG (ENR+CD organoids; [5]): −0.101 log2 fold change; Dose.FC.CTG (ENR+CD organoids; [6]): −0.782 log2 fold change
C[C@H](Oc1cc(-c2cnn(C3CCNCC3)c2)cnc1N)c1c(Cl)ccc(F)c1Cl [(S)-crizotinib]	0.193	1.679	0.009	0.081	−0.034	−0.294	−0.068	−0.588	0.125	0.016	−0.059	−0.111	0.241	0.575	0.054	0.130	0.111	0.266	0.019	0.046	SSMD.LYZ.NS_Rep (strictly standardized mean difference) [1, 7]: 0.838; SSMD.LYZ.NS_Rep (strictly standardized mean difference) [1, 8]: 0.094; SSMD.LYZ.NS_Rep (strictly standardized mean difference) [1, 9]: −0.229; SSMD.LYZ.NS_Rep (strictly standardized mean difference) [1, 10]: −0.438; SSMD.LYZ.S_Rep (strictly standardized mean difference) [2, 7]: 0.881; Z.LYZ.S (standard z score) [2, 7]: 0.808; SSMD.LYZ.S_Rep (strictly standardized mean difference) [2, 8]: 0.084; Z.LYZ.S (standard z score) [2, 8]: 0.103; SSMD.LYZ.S_Rep (strictly standardized mean difference) [2, 9]: −0.343; Z.LYZ.S (standard z score) [2, 9]: −0.383; SSMD.LYZ.S_Rep (strictly standardized mean difference) [2, 10]: −0.491; Z.LYZ.S (standard z score) [2, 10]: −0.720; SSMD.CTG.Rep (strictly standardized mean difference) (ENR+CD organoids; [7]): 0.742; SSMD.CTG.Rep (strictly standardized mean difference) (ENR+CD organoids; [8]): 0.190; SSMD.CTG.Rep (strictly standardized mean difference) (ENR+CD organoids; [9]): 0.285; SSMD.CTG.Rep (strictly standardized mean difference) (ENR+CD organoids; [10]): 0.034

— patent US20220323406A1, “METHODS AND COMPOSITIONS FOR DIFFERENTIATING STEM CELLS” (Massachusetts Institute of Technology, priority 2019, published 2022)
